# Results as given in article PMC7380166, “How to Study the Metabolism of New Psychoactive Substances for the Purpose of Toxicological Screenings—A Follow-Up Study Comparing Pooled Human Liver S9, HepaRG Cells, and Zebrafish Larvae” (Frontiers in Chemistry, 2020).
# Key:
# zebrafish larvae [1] = assay: In vivo maximum-tolerated concentration (MTC) study in zebrafish larvae; parameters: species or system zebrafish (Danio rerio); conditions: for Survival rate: 24-h treatment, fifteen larvae
# Method: Internal protocols based on published standard methods (Westerfield, [2007]) were used to perform zebrafish husbandry and the maximum-tolerated concentration (MTC) testing was based on a previous study (Richter et al., [2019a]). Danieau's medium [17 mM NaCl, 2 mM KCl, 0.12 mM MgSO4, 1.8 mM Ca(NO3)2, 1.5 mM HEPES, pH 7.1–7.3, and 1.2 μM methylene blue] at 28°C was used to raise zebrafish larvae of the AB wild-type strain. For MTC testing, 96-well plates were used with 100 μl of medium and one larva per well. Drug exposition was started 4 dpf using 0, 0.01, 0.1, 1, 10, 50, or 100 μM final concentrations of 3,4-DMA-NBOMe, ephylone, 4F-MDMB-BINACA, 4F-PHP, or 1P-LSD, respectively. The drug exposure in the incubator at 28°C lasted 24 h. The final DMSO concentration was 1% (v/v) for all experiments. Monitoring of the larvae was done using a LEICA M205 FA stereo microscope (Leica Mikrosysteme Vertrieb GmbH, Wetzlar, Germany) to detect developmental defects and/or decreased survival rates. Fifteen larvae were used for each experiment.
# monooxygenases = conditions: initial monooxygenases activity screenings described elsewhere; ref Caspar et al., [2018a]; Wagmann et al., [2019b],[c]; cited from earlier work
# HepaRG cells = assay: Incubations with HepaRG cells, metabolite identification by LC-HRMS/MS; assay type: in vitro ADME, human
# [2] = ref Wagmann et al., cited from earlier work
# [3] = Incubations with pooled human liver S9 fraction (pHLS9), metabolite identification by LC-HRMS/MS; assay type: in vitro ADME; conditions: human data for ephylone and 4F-PHP from Wagmann et al., [2019b]
# Method: According to published procedures (Richter et al., [2017b], [2019b]; Caspar et al., [2018b]; Wagmann et al., [2019b],[c]), the final incubation volume per reaction tube was 150 μl, with a final protein concentration of 2 mg/ml. The given concentrations represent final concentrations. A preincubation for 10 min at 37°C with UGT reaction mixture solution B (containing alamethicin, 25 μg/ml), MgCl2 (2.5 mM), NADP^+ (0.6 mM), isocitrate (2.5 mM), isocitrate dehydrogenase (0.8 U/ml), superoxide dismutase (100 U/ml), acetyl coenzyme A (0.1 mM), phosphate buffer (90 mM, pH 7.4), and pHLS9 (2 mg/ml) was done. Afterwards, UGT reaction mixture solution A (containing UDP glucuronic acid, 2.5 mM), PAPS (40 μM), SAM (1.2 mM), dithiothreitol (1 mM), and glutathione (10 mM) were added, as well as 25 μM 4F-MDMB-BINACA to start the reactions. The mixture was incubated for 360 min. Total amount of organic solvent in incubation mixtures was <2% (Chauret et al., [1998]). After 60 min, an aliquot of the reaction mixture (60 μl) was transferred in another reaction tube containing 20 μl of ice-cold acetonitrile to terminate the reactions. The remaining aliquot (90 μl) was incubated for an additional 300 min, and then the reactions were stopped by adding 30 μl of ice-cold acetonitrile. Thereafter, the reaction tubes were cooled at −20°C for 30 min prior to centrifugation at 18,407 × g for 2 min. The supernatants (50 μl) were transferred into autosampler vials, and 1 μl was injected onto the LC-HRMS/MS system. Control samples without pHLS9 and blank samples without substrate were prepared to confirm the absence of non-metabolically formed and interfering compounds, respectively. All incubations were performed in duplicate.
# According to a previous study (Richter et al., [2019a]), a Thermo Fisher Scientific (TF, Dreieich, Germany) Dionex UltiMate 3000 Rapid Separation (RS) UHPLC system with a quaternary UltiMate 3000 RS pump and an UltiMate 3000 RS autosampler controlled by the TF Chromeleon software version 6.8 was used. The LC system was coupled to an Orbitrap-based TF Q-Exactive Plus equipped with a heated electrospray ionization II (HESI-II) source. Calibration was done prior to analysis with a Positive Cal Mix (Supelco, Bellefonte, PA, USA) at a flow rate of 3 μl/min using a syringe pump. The conditions of the LC system were as follows: TF Accucore PhenylHexyl column (100 × 2.1 mm, 2.6 μm particle size); gradient elution with 2 mM ammonium formate solution containing 0.1% (v/v) formic acid (eluent A) and 2 mM ammonium formate solution in acetonitrile/methanol (50:50, v/v) containing 0.1% (v/v) formic acid, and 1% (v/v) water (eluent B). […] The following gradient was used: 0–1.0 min hold 1% B, 1–10 min to 99% B, 10–11.5 min hold 99% B, 11.5–13.5 min hold 1% B. The HESI-II source conditions were as follows: ionization mode, positive; heater temperature, 320°C; ion transfer capillary temperature, 320°C; sheath gas, 60 arbitrary units (AU); auxiliary gas, 10 AU; spray voltage, 4.00 kV; and S-lens RF level, 50.0. Mass spectrometry experiments were performed using high-resolution (HR) full scan mode and a targeted MS^2 mode with an inclusion list for each NPS. The inclusion list contained m/z values of metabolites, which were likely to be formed for example hydroxy, oxo, carboxy, dealkyl, demethylenylated, and defluorinated metabolites (phase I) as well as sulfates and glucuronides (phase II) and combinations of them. Full scan settings were as follows: resolution, 35,000; automatic gain control (AGC) target, 3e6; maximum injection time (IT), 120 ms; scan ranges, 3,4-DMA-NBOMe m/z 100–700, ephylone m/z 200–600, 4F-MDMB-BINACA m/z 150–700, 4F-PHP m/z 200–600, and 1P-LSD m/z 250–700. The settings for the targeted MS^2 mode with the respective inclusion lists were as follows: resolution, 17,500; AGC target, 2e5; maximum IT, 250 ms; loop count, 5; isolation window, 1.0 m/z; stepped normalized collision energy (NCE), 17.5, 35, 52.5%; pick others, enabled. […]
# zebrafish larvae [4] = assay: Zebrafish larvae exposure, metabolite identification by LC-HRMS/MS
# [5] = plasma, human data for ephylone and 4F-PHP from Wagmann et al., [2019b]
# [6] = urine, human data for ephylone and 4F-PHP from Wagmann et al., [2019b]
smiles,measurement,setting,value
"CCCCC(C(=O)c1ccc(F)cc1)N1CCCC1 (stereo not drawn) [Metabolite 4F-PHP, 4-fluoro-alpha-pyrrolidinohexiophenone]",Survival rate,"zebrafish larvae [1]; 0.01 μM, larvae 4 dpf",100%
same,Survival rate,"zebrafish larvae [1]; 0.1 μM, larvae 4 dpf",100%
same,Survival rate,"zebrafish larvae [1]; 1 μM, larvae 4 dpf",100%
same,Survival rate,"zebrafish larvae [1]; 10 μM, larvae 4 dpf",100%
same,Survival rate,"zebrafish larvae [1]; 50 μM, larvae 4 dpf",100%
same,Survival rate,"zebrafish larvae [1]; 100 μM, larvae 4 dpf",100%
same,Survival rates for all tested concentrations,"zebrafish larvae [1]; 0.01 to 100 μM, larvae 4 dpf, 24 h",100%
same,Concentration considered non-toxic for zebrafish larvae (4 dpf),zebrafish larvae [1]; 24 h exposure via medium,100 µM
same,Malformations,"zebrafish larvae [1]; up to 100 μM, larvae 4 dpf, 24 h",no malformations
same,Monooxygenases involved in metabolism,monooxygenases,"CYP1A2, CYP2B6, CYP2C19, and CYP3A4"
same,"Absolute peak area, HepaRG [25 μM]","HepaRG cells; 25 μM parent NPS, 24 h, cell culture medium, one replicate of n = 3, n.d. = not detected",6.65E+08
same,"Number of phase I metabolites detected, HepaRG [25 μM]","HepaRG cells; 25 μM, 24 h",5
same,"Number of phase II metabolites detected, HepaRG [25 μM]","HepaRG cells; 25 μM, 24 h",0
same,"Absolute peak area, HepaRG [250 μM]","HepaRG cells; 250 μM parent NPS, 24 h, cell culture medium, one replicate of n = 3, n.d. = not detected",5.45E+09
same,"Number of phase I metabolites detected, HepaRG [250 μM]","HepaRG cells; 250 μM, 24 h",6
same,"Number of phase II metabolites detected, HepaRG [250 μM]","HepaRG cells; 250 μM, 24 h",1
same,"Relative number of matches with the four most abundant signals in human plasma, HepaRG [25 μM]",HepaRG cells; [5],50%
same,"Relative number of matches with the four most abundant signals in human plasma, HepaRG [250 μM]",HepaRG cells; [5],50%
same,"Relative number of matches with the four most abundant signals in human urine, HepaRG [25 μM]",HepaRG cells; [6],25%
same,"Relative number of matches with the four most abundant signals in human urine, HepaRG [250 μM]",HepaRG cells; [6],50%
same,"Number of phase I metabolites detected, pHLS9 [25 μM]","[2]; 25 μM, [2019b]","6 (Wagmann et al., [2019b])"
same,"Number of phase II metabolites detected, pHLS9 [25 μM]","[2]; 25 μM, [2019b]","2 (Wagmann et al., [2019b])"
same,Detection in pHLS9 [25 µM],"[2]; 4F-PHP and metabolites, n = 2, according to literature, 2019a",+
same,"Relative number of matches with the four most abundant signals in human plasma, pHLS9 [25 μM]",[3]; plasma,75%
same,"Relative number of matches with the four most abundant signals in human urine, pHLS9 [25 μM]",[3]; urine,75%
same,"Number of phase I metabolites detected, Zebrafish larvae","zebrafish larvae [4]; 100 μM in medium, 24 h",8
same,"Number of phase II metabolites detected, Zebrafish larvae","zebrafish larvae [4]; 100 μM in medium, 24 h",3
same,"Absolute peak area, Zebrafish larvae [100 µM]","zebrafish larvae [4]; 100 µM parent NPS in medium, larvae 4 dpf, 24 h, larvae extract, one replicate of n = 3, n.d. = not detected",4.36E+09
same,"Relative number of matches with the four most abundant signals in human plasma, Zebrafish larvae","zebrafish larvae [4]; plasma, larvae exposed to 100 μM, human data from Wagmann et al., [2019b]",100%
same,"Relative number of matches with the four most abundant signals in human urine, Zebrafish larvae","zebrafish larvae [4]; urine, larvae exposed to 100 μM, human data from Wagmann et al., [2019b]",75%
